Measurements published in patent US20220288052A1, “COMPOUND FOR COMBINATION TREATMENT” (priority 2019, published 2022).

Tests used:
NMRI mice [1] = experiment: Mouse forced swim test (mFST); assay type: in vivo; conditions: mFST (NMRI), p.o. 60 min
Experimental: Compound (I) was tested in two of the most widely used behavioural screens for predicting antidepressant effects in the clinic: the mouse forced swim test (mFST) and mouse tail suspension test (mTST).
In order to further characterize the role played by 5-HT and DA-ergic neurotransmission in the antidepressant-like effects of compound (I), the potential involvement of 5-HT1A and D1 receptors was investigated in the mFST.

C57 mice = experiment: Mouse tail suspension test (mTST); assay type: in vivo; conditions: i.p. 30 min
Experimental: C57 males, 25-28 g, Taconic, 16/8-06. Mice acclimatized to ground floor 5 days before testing. Mice saline injected once a day twice before test day. 22° C., N=7-8.

[2] = tested on: nialamide pre-treated mice; experiment: Nialamide-induced 5-HT syndrome (m5-HT); assay type: in vivo, mouse; conditions: m5-HT, p.o. 0 min
Experimental: 50 mg/kg nialamide s.c. t=120 min. Compound (I) p.o. t=0. n=4.
(§1) Compound (I) was tested in a classical test often used to measure the ability of a compound to block the reuptake of 5-HT in vivo: nialamide-induced 5-HT syndrome (m5-HT). In addition, compound (I) was tested in a locomotor activity paradigm (mLA) as a measure of its ability to block the reuptake of DA and therefore induce motility. It is generally accepted that >60% DA transporter blockade is needed to induce increased motility in this test.

NMRI mice [3] = experiment: Locomotor activity (mLA); assay type: in vivo, mouse; conditions: mLA; for MED: p.o. 0 min
Experimental: FIG. 8: The effects of compound (I) on locomotor activity. Compound (I) p.o. in NMRI mice. TSE Motility.
as §1

NMRI mice [4] = experiment: Mouse marble burying test (mMB); assay type: in vivo; conditions: Marble burying, p.o., −60 min
Experimental: FIG. 13: Marble burying. In the marble-burying test mice exposed to a novel object (marbles) bury them in the sawdust floor covering. Compounds showing anxiolytic-like activity decrease the number of buried marbles at non-sedative doses. […] The number of marbles covered by sawdust was counted at the end of a 60-min session.
(§2) Compound (I) was tested in three widely used behavioural screens for predicting anxiolytic effects in the clinic: the mouse marble burying test (mMB), mouse zero maze (mZM) and mouse stress-induced hyperthermia test (mSIH).

mice = experiment: Mouse zero maze (mZM); assay type: in vivo; conditions: mZero maze, p.o., 7 days OD
Experimental: Mice were treated (peroral administration) for 7 days with either, vehicle, duloxetine (10 mg/kg), and compound I (0.1 mg/kg, 1 mg/kg, and 3 mg/kg) (n=8 in each group).
as §2

NMRI mice [5] = experiment: Mouse stress-induced hyperthermia test (mSIH); assay type: in vivo; conditions: mSIH, p.o., −60 min
Experimental: FIG. 14: Stress-induced hyperthermia. When mice are confronted with a stress-full event, the body temperature rises.
as §2

[6] = biological target: T1, dopamine transporter (DAT) (Mus musculus, UniProt Q61327); experiment: MPTP model of DAT inhibition (striatal dopamine depletion); assay type: in vivo, C57 mouse; parameters: Dopamine Mean ± SEM / DOPAC Mean ± SEM / HVA Mean ± SEM: unit not given here; conditions: MPTP 25 mg/kg s.c. alone
T1 construct: in vivo DAT transporter occupancy (open bars) in mouse striatum; from tissue; host or cells: mouse striatum (in vivo; C57 mice in the MPTP model)
T1 sequence (Q61327 whole entry): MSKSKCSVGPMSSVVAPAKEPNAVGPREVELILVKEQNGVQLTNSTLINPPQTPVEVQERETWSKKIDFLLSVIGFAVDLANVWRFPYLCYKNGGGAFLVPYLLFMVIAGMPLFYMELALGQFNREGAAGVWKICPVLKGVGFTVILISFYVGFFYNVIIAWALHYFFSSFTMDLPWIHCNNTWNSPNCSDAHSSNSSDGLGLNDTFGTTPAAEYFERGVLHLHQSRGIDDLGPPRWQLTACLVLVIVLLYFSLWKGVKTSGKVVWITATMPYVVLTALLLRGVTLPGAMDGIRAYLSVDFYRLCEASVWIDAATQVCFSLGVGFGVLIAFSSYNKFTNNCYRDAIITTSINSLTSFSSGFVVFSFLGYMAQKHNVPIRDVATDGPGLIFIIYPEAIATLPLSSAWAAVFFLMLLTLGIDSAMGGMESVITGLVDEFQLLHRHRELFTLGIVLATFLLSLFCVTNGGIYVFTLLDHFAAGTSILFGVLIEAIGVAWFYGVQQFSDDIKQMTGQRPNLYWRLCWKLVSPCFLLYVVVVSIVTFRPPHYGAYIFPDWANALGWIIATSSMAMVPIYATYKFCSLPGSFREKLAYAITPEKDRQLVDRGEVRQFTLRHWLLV
From the text: In this model compound (I) induced protection against the dopamine depletion induced by the entry of the MPTP metabolite MPP+ into the dopamine terminals of the mouse C57 striatal tissue.

Compound: CN(C)CCCC1(c2ccc(F)cc2)OCc2cc(C#N)ccc21 (stereo not drawn) [Citalopram, reference compound]
- MED (NMRI mice [1]): 10 mg/kg
- MED (C57 mice): <5 mg/kg
- MED [2]: 10 mg/kg
- MED (NMRI mice [3]): >60 mg/kg

Compound: CNCC[C@H](Oc1cccc2ccccc12)c1cccs1 [Duloxetine, reference compound]
- MED (NMRI mice [1]): 30 mg/kg
- MED (C57 mice): 10 mg/kg
- MED [2]: 10 mg/kg
- Effect on locomotor activity (NMRI mice [3]; p.o.): without effect
- MED (NMRI mice [3]): >60 mg/kg
- MED (NMRI mice [4]): 10 mg/kg
- MED (mice): <10 mg/kg
- MED (NMRI mice [5]): >30 mg/kg

Compound: CN1CC=C(c2ccccc2)CC1 [MPTP, reference compound]
- DOPAC Mean ± SEM [6]: 1 ± 0.2
- HVA Mean ± SEM [6]: 0.7 ± 0.1
- Dopamine Mean ± SEM ([6]; mouse striatal tissue): 4.2 ± 0.6
